From article PMC4685510, “A Cell Biologist’s Field Guide to Aurora Kinase Inhibitors” (Frontiers in Oncology, 2015)
Where two headings read alike, the source gives them in different places.

How the values were obtained:
[1] = tested on: pLATS2(Ser 83) in RPE1 cells; assay: Substrate phosphorylation immunofluorescence assay, pLATS2(Ser 83), RPE1; type: cell-based, human; conditions: for IC50: Homo sapiens, read-out: pLATS2 (Ser83) IC50
Method: We employed the protocol described in Figure 3D to analyze substrate phosphorylation in HeLa cells following treatment with all 10 inhibitors in dose–response. Asynchronous cells were incubated with vehicle (DMSO) or different inhibitor doses for 8 h and then fixed and labeled with a mixture of three antibodies directed against pLATS2(Ser 83), pH3(Ser 28), and MPM2 [which detects mitotic phosphoepitopes; ([86])]. While both the anti-pLATS2(Ser 83) and MPM2 antibodies are mouse monoclonals, they are of different IgG subclasses [IgG2b for anti-pLATS2(Ser 83) and IgG1 for MPM2], and can thus be detected with subclass-specific secondary antibodies (Table S3 in Supplementary Material).
In control mitotic cells, pLATS2(Ser 83) is concentrated in foci around the spindle poles (Figure 3E; top row – green arrow) and pH3(Ser 28) is on the mitotic chromatin (Figure 3E; top row – red arrow). Selective kinase inhibition should result in loss of one signal but not the other, as illustrated by the example images for specific conditions in Figure 3E (middle and bottom rows). Cells were imaged in 4 channels to visualize pLATS2(Ser 83), pH3(Ser 28), MPM2, and DNA (labeled with Hoechst) and mitotic cells were segmented based on their bright MPM2 labeling (Figure 3E). Intensity and area thresholds were set to select the pLATS2(Ser 83) foci and the pH3(Ser 28)-labeled chromatin in their respective channels in DMSO-treated control cells and the same thresholds were applied for inhibitor-treated cells. The mean fluorescence intensity per pixel was measured to assess the activities of the kinases targeting these two substrate phosphorylation sites.
Twelve thousand HeLa cells, 10,000 U2OS cells, or 8,000 RPE1 cells were seeded into 96-well glass-bottom Sensoplates (Greiner) 16 h before inhibitor addition. Prior to seeding, the glass-bottom plates were coated with poly-L-lysine (Sigma). […] After 8 h cells were fixed with 4% PFA for 20 min at room temperature. The fixed cells were washed with PBS. For immunostaining, cells were permeabilized and blocked with PBS containing 10% normal donkey serum (Jackson ImmunoResearch) and 0.1% Triton-X100 for 1 h at room temperature. Primary antibodies against phospho-LATS2 (Ser 83), phospho-histone H3(Ser 28), and anti-phospho-MPM2 (see Table S3 in Supplementary Material) were incubated for 1 h at room temperature. […] Cells were then washed twice with PBS containing 0.1% Triton-X100. Image acquisition in four channels was performed using a CV7000 spinning disk confocal system (Yokogawa Electric Corporation) with a 40 × 0.95 NA U-PlanApo objective and 2560 × 2160 pixel sCMOS camera. […] Fifty fields per well were imaged with quadruplicate wells for each condition. Image analysis was done using the CV7000 image analysis software (Yokogawa Electric Corporation). Between 100 and 1,000 mitotic cells per condition were segmented applying object identification parameters to select for bright MPM2 labeling. Using a nuclear identifier protocol, minimum intensity thresholds were set for pLATS2(Ser 83) and the pH3(Ser 28) signals, and the resulting identified objects were eroded, dilated, and filtered for size by user-defined thresholds. For only the MPM2-positive mitotic cells, the mean fluorescence intensity of the identified pLATS2(Ser 83) and pH3(Ser 28) objects was measured, and the average intensity per cell per well was calculated. The same thresholds were applied for all of the inhibitor-treated samples, which were processed, imaged, and analyzed in parallel with control DMSO-treated cells. Data were fit using a four-parameter, variable slope fit in Prism (GraphPad). Primary and secondary antibody dilutions can be found in Table S3 in Supplementary Material.

[2] = tested on: pAuroraB(Thr 232), pH3(Ser 10), pH3(Ser 28) in HeLa cells; assay: Immunoblotting of pAuroraB(Thr 232), pH3(Ser 28) and pH3(Ser 10); type: cell-based, human; conditions: immunoblot; for Effect on pH3(Ser 10), pH3(Ser 28), pAuroraB(Thr 232): dose–response
[3] = tested on: pAuroraA(Thr 288) in HeLa cells; assay: Immunoblotting of Aurora A activation loop phosphorylation; type: cell-based, human; conditions: for Effect on pAuroraA(Thr 288): dose–response; for IC50: Homo sapiens, read-out: IC50 pAuroraA(Thr 288)
[4] = target: 363 human kinases (including Aurora A/B/C) (Homo sapiens, UniProt P57059); assay: biochemical; type: biochemical; conditions: SIK1; for remaining activity at 0.1 µM: 100 nM; for remaining activity at 0.1 µM / remaining activity at 0.5 µM: read-out: % Enzyme Activity (relative to DMSO controls)
363 human kinases (including Aurora A/B/C) (Homo sapiens, UniProt P57059), sequence (P57059 whole entry): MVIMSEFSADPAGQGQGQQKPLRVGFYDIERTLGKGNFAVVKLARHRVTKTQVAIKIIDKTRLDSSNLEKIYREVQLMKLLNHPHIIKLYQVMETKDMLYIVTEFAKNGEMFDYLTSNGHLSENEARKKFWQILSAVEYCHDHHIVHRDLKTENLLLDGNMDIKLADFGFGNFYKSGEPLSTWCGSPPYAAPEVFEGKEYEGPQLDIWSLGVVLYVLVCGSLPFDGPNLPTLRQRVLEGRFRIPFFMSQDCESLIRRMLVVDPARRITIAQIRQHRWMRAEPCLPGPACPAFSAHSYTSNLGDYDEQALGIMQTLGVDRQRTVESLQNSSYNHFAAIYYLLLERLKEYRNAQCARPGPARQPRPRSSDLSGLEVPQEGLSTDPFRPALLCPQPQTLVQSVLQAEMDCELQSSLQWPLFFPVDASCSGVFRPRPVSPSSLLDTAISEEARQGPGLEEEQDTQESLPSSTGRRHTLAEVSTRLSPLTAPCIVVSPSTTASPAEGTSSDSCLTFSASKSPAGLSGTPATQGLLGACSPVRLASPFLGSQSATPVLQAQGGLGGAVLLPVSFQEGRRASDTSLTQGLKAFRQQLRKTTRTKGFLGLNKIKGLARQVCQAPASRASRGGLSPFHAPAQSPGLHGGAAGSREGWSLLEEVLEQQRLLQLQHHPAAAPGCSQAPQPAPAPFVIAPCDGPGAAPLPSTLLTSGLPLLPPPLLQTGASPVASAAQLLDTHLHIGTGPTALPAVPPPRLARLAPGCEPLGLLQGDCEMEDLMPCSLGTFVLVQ
Source text: (§1) However, the Aurora A/B selectivity ratios derived from our in vitro and in vivo data can be compared to prioritize inhibitors.

[5] = target: 363 human kinases (including Aurora A/B/C) (Homo sapiens, UniProt Q05397); assay: biochemical; type: biochemical; conditions: FAK/PTK2, [ATP] 50 µM; for remaining activity at 0.1 µM: 100 nM; for remaining activity at 0.1 µM / remaining activity at 0.5 µM: read-out: % Enzyme Activity (relative to DMSO controls)
363 human kinases (including Aurora A/B/C) (Homo sapiens, UniProt Q05397), sequence (Q05397 whole entry): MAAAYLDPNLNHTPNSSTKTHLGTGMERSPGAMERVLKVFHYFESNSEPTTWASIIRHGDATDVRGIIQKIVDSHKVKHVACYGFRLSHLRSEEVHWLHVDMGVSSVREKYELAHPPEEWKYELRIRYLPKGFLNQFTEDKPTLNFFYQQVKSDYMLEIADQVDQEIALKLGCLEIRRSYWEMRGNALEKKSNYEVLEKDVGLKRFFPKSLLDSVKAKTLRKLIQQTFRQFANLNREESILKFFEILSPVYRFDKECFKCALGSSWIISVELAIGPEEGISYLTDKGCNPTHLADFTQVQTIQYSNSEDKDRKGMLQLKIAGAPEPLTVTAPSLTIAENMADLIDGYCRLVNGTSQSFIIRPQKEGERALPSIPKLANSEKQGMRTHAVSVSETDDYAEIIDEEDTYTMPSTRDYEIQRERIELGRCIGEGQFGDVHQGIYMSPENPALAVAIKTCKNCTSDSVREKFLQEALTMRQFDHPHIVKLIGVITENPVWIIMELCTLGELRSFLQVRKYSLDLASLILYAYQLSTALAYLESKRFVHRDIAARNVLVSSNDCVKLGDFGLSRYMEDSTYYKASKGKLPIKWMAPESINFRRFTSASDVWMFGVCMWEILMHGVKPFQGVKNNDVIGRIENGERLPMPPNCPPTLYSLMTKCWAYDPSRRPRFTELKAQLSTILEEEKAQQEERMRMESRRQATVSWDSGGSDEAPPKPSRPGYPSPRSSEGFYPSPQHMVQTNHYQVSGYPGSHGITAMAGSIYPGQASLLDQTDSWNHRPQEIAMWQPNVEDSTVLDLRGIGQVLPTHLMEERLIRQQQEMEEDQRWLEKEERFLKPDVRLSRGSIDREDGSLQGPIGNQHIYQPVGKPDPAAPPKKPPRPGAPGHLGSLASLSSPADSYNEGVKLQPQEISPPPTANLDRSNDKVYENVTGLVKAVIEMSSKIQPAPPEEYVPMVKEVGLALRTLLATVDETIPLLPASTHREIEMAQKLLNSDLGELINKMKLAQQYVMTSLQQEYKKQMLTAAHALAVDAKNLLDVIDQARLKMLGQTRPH
Source text: as §1

[6] = target: 363 human kinases (including Aurora A/B/C) (Homo sapiens, UniProt Q9UEW8); assay: biochemical; type: biochemical; conditions: STK39/STLK3; for remaining activity at 0.1 µM: 100 nM; for remaining activity at 0.1 µM / remaining activity at 0.5 µM: read-out: % Enzyme Activity (relative to DMSO controls)
Source text: as §1

[7] = target: 363 human kinases (including Aurora A/B/C) (Homo sapiens, UniProt P45983); assay: biochemical; type: biochemical; conditions: JNK1; for remaining activity at 0.1 µM: 100 nM; for remaining activity at 0.1 µM / remaining activity at 0.5 µM: read-out: % Enzyme Activity (relative to DMSO controls)
363 human kinases (including Aurora A/B/C) (Homo sapiens, UniProt P45983), sequence (P45983 whole entry): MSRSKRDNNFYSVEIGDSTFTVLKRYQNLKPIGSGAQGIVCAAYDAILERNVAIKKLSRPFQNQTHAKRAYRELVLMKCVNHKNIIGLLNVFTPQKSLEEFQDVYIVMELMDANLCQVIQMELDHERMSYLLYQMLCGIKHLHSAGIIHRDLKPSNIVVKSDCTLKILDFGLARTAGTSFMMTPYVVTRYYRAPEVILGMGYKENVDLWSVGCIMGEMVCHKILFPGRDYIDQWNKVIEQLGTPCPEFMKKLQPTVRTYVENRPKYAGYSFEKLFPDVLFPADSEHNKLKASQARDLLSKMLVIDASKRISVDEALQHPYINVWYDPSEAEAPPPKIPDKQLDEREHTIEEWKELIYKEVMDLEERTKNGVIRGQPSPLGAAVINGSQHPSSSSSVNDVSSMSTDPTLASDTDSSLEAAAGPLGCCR
Source text: as §1

For `CCn1cc(-c2ccnc3[nH]c(-c4cccc(CN(C)C)c4)cc23)c(-c2ccc(NC(=O)N(C)C)cc2)n1` [GSK1070916], the “pLATS2 (Ser83) IC50” value ([1]; RPE1, 8 h inhibitor treatment) was “NE@200 nM”, the “Concentration eliminating Aurora B activity without affecting pAuroraA (Thr 288)” value [2] was < 100 nM and the “Effect on pH3(Ser 10), pH3(Ser 28), pAuroraB(Thr 232)” value (shortened to “Effect … pAuroraB(Thr 232)”) [2] was “eliminated”. The “Effect on Aurora A activity (pAuroraA Thr 288)” value ([3]; immunoblot, 300 nM (Figure S6)) was “inhibited Aurora A activity”, the “Effect on pAuroraA(Thr 288)” value ([3]; immunoblot) was “did not affect” and the remaining activity at 0.1 µM [4] was 40.7%. For the same compound, the remaining activity at 0.1 µM [5] was 95.2%, the remaining activity at 0.1 µM [6] was 100% and the remaining activity at 0.1 µM [7] was 98%.

In the case of `O=C(c1cccc(Cl)c1F)N1CCN(Cc2cccc(Nc3nccs3)n2)CC1` [MK-8745], the IC50 ([1]; RPE-1, RPE1, 8 h inhibitor treatment) is reported as 2300 nM, the “Effect … pAuroraB(Thr 232)” value [2] is reported as “no effect” and the IC50 ([3]; immunoblot, taxol-arrested mitotic lysates) is reported as < 100 nM. The “Effect on pAuroraA(Thr 288)” value ([3]; immunoblot) was “completely eliminate Thr 288 phosphorylation”, the “% Enzyme Activity (relative to DMSO controls)” value ([4]; 500 nM) was 93.78% and the remaining activity at 0.5 µM ([4]; 500 nM) was 95.7%. For the same compound, the “% Enzyme Activity (relative to DMSO controls)” value ([5]; 500 nM) was 58.97%, the remaining activity at 0.5 µM ([5]; 500 nM) was 60.2% and the “% Enzyme Activity (relative to DMSO controls)” value ([6]; 500 nM) was 98.73%. The remaining activity at 0.5 µM ([6]; 500 nM) was 99.8%, the “% Enzyme Activity (relative to DMSO controls)” value ([7]; 500 nM) was 13.45% and the remaining activity at 0.5 µM ([7]; 500 nM) was 13.8%.

`O=C(O)[C@]1(Cc2cccc(Nc3nccs3)n2)CC[C@@H](Oc2cccc(Cl)c2F)CC1` [MK-5108] was tested, and the IC50 ([1]; RPE-1, 8 h) was 1800 nM, the “Effect … pAuroraB(Thr 232)” value [2] was “no effect” and the IC50 [3] was < 100 nM. For the same compound, the “Effect on pAuroraA(Thr 288)” value ([3]; immunoblot) was “completely eliminate Thr 288 phosphorylation”, the remaining activity at 0.1 µM [4] was 103% and the remaining activity at 0.5 µM ([4]; 500 nM) was 54.4%. For the same compound, the remaining activity at 0.1 µM [5] was 49.8%, the remaining activity at 0.5 µM ([5]; 500 nM) was 15.2% and the remaining activity at 0.1 µM [6] was 105%. The remaining activity at 0.5 µM ([6]; 500 nM) was 97.4%, the remaining activity at 0.1 µM [7] was 61.8% and the remaining activity at 0.5 µM ([7]; 500 nM) was 29.3%.
